pKi: −log10 of the molar value.

Test [1] is described as follows: The binding affinity at the Histamine H1 receptor determined using [3H]pyrilamine. Further details: species or system Cavia porcellus.
For test [2], the system named is Rattus norvegicus. The test is described as follows: The increase in the extracellular levels of NA in the rat ventral hippocampus at a dose of 2.5 mg/kg sc measured by in vivo microdialysis. It is filed as functional. Particulars: route subcutaneous.
Test [3] has as its system Rattus norvegicus. The test is described as follows: The increase in the extracellular levels of NA in the rat ventral hippocampus at a dose of 5.0 mg/kg sc measured by in vivo microdialysis. It is filed as functional. The following applies: route subcutaneous.
Test [4] has as its system Rattus norvegicus. Nature of the test: The increase in the extracellular levels of 5-HT in the rat ventral hippocampus at a dose of 5.0 mg/kg sc measured by in vivo microdialysis. Format: functional. Particulars: route subcutaneous.
The test system of test [5] is Rattus norvegicus. The test is described as follows: The increase in the extracellular levels of DOPAC in the rat ventral hippocampus at a dose of 5.0 mg/kg sc measured by in vivo microdialysis. It is filed as functional. The following applies: route subcutaneous.

In test [1], `COc1cccc2c1N1CCN(C)C[C@@H]1c1ccccc1C2` showed a negative logarithm of the Ki (pKi) of 7.89. This compound displayed an Increase in the test with Rattus norvegicus [2] of 200%.
`COc1cccc2c1N1CCN(C)C[C@H]1c1ccccc1C2` yielded an Increase in the test on Rattus norvegicus [3] of 200%. The pKi in test [1] is 7.85.
Regarding `COc1cccc2c1N1CCN(C)CC1c1ccccc1C2` (racemic), the Increase is reported as 200% with Rattus norvegicus [3], 200% with Rattus norvegicus [4] and 160% in the test with Rattus norvegicus [5].

For the origin of these results see ChEMBL document CHEMBL1135518 (J Med Chem, 2002).
